{
  "source": "patent US20080226715A1",
  "about": "“THERAPEUTIC COMPOSITIONS AND METHODS” (priority 2007, published 2008)",
  "origin": "cited, not measured here",
  "key": {"[1]": {"conditions": "after oral dosing; normal subjects"}, "[2]": {"conditions": "in vivo"}},
  "data": [
    {"compound": "CC(=O)Oc1ccccc1C(=O)O", "note": "[aspirin]", "values": [
      {"measurement": "time of peak plasma concentrations", "setting": "[1]", "value": "about 1 hour"}
    ]},
    {"compound": "O=C(O)CCc1nc(-c2ccccc2)c(-c2ccccc2)o1", "note": "[Oxaprozin]", "values": [
      {"measurement": "bioavailability", "setting": "[2]", "value": 95, "unit": "%"},
      {"measurement": "pharmacokinetics half-life", "setting": "[2]", "value": "42 to 50", "unit": "h"}
    ]},
    {"compound": "CC(=O)Nc1ccc(O)cc1", "note": "[acetaminophen]", "values": [
      {"measurement": "time of peak plasma concentrations", "setting": "[1]", "value": "about 1 hour"}
    ]}
  ]
}
